Source: patent US12187716B2, “TYK2 kinase inhibitors” (SAREUM LIMITED, priority 2018, dated 2025)
Read-outs that look alike come from different tables or passages of the source.

Tests used:
CYP1A2 = molecular target: T1, CYP1A2 (Homo sapiens, UniProt P05177); assay: Cytochrome P450 inhibition assay, CYP1A2; format: in vitro ADME; conditions: pooled human liver microsomes, probe Phenacetin
T1 sequence (P05177 1-516): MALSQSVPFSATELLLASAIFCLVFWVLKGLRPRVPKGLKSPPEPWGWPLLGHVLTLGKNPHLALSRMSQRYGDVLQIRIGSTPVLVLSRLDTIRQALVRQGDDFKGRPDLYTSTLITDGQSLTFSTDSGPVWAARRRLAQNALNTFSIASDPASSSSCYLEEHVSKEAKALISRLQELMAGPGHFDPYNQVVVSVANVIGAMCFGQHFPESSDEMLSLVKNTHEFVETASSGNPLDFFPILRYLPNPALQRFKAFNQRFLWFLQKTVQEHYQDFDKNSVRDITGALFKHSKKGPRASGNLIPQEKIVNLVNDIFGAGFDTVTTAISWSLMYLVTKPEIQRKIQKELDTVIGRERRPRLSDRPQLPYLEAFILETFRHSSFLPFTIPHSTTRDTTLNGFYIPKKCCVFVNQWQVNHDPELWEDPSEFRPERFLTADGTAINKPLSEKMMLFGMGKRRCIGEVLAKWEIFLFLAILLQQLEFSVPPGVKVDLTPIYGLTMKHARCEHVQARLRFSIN
Description: (§1) The susceptibility of Compounds (2) and (3) to potential drug-drug interactions was tested by assaying their abilities to inhibit various cytochrome P450 isoforms. Prior art Compound B (see Example 3 above) was also tested as a comparative example. Test compounds, prepared and serially diluted in DMSO, were incubated at six concentrations (1% DMSO final) with pooled human liver microsomes in the presence of probe substrate for each isoform, and their effects on the metabolism of probe substrates determined. Incubations (in 96-well plates) were carried out at 37° C. in 0.1 M Tris buffer, pH 7.4, with reactions initiated by the addition of cofactor, NADPH (1 mM final concentration). At the specified times, reactions were terminated with acetonitrile containing an analytical internal standard, samples were centrifuged and the supernatant fractions were analysed for probe substrate metabolites by mass spectrometry (LC-MS/MS). The instrument responses were normalised to internal standard and compared to the appropriate solvent controls to determine the amount of metabolite formed from the probe substrates relative to these “uninhibited” controls. […] [table]

CYP2C19 = molecular target: T2, CYP2C19 (Homo sapiens, UniProt P33261); assay: Cytochrome P450 inhibition assay, CYP2C19; format: in vitro ADME; conditions: pooled human liver microsomes, probe S-(+)-Mephenytoin
T2 construct: from tissue; host or cells: pooled human liver microsomes
T2 sequence (P33261 whole entry): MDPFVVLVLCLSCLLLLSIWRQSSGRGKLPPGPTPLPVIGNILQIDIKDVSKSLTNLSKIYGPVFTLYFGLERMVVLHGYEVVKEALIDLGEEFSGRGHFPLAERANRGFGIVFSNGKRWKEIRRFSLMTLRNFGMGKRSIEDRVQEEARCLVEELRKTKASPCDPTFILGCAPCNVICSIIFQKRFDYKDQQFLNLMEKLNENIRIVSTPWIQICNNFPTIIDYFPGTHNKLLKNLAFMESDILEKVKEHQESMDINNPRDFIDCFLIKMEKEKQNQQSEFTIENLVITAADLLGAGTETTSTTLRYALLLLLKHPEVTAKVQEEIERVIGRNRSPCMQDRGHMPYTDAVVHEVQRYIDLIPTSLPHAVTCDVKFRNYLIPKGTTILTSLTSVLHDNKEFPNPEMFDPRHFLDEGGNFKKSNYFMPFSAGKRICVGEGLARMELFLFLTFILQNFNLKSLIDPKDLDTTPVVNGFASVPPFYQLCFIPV
Description: as §1

CYP2D6 = molecular target: T3, CYP2D6 (Homo sapiens, UniProt P10635); assay: Cytochrome P450 inhibition assay, CYP2D6; format: in vitro ADME; conditions: pooled human liver microsomes, probe Dextromethorphan
T3 construct: from tissue; host or cells: pooled human liver microsomes
T3 sequence (P10635 whole entry): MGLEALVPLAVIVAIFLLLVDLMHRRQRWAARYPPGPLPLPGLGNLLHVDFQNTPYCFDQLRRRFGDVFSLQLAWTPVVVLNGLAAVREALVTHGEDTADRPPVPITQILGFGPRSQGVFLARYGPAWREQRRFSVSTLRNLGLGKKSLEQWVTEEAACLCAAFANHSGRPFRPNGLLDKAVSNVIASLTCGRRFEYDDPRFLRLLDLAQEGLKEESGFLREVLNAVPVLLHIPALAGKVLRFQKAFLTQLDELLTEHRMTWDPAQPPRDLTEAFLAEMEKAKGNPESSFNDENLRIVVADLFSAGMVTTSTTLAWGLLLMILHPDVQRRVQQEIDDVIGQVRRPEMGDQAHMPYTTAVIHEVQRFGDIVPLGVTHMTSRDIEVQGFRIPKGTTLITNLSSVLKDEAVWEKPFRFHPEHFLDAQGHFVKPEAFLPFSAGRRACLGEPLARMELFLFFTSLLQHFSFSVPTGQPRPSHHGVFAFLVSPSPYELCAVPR
Description: as §1

hERG potassium channel = molecular target: T4, hERG potassium channel (Homo sapiens, UniProt Q12809); assay: hERG channel inhibition assay (hERG-HEK cells, Sophion Qube); format: cell-based; conditions: for IC50: hERG-HEK cells, tail current, room temperature; for inhibition at 30 uM: human, hERG-HEK stably transfected cell line, Max Conc. 30 uM
T4 construct: expressed in transfected cells; host or cells: hERG-HEK stably transfected cell line
T4 sequence (Q12809 whole entry): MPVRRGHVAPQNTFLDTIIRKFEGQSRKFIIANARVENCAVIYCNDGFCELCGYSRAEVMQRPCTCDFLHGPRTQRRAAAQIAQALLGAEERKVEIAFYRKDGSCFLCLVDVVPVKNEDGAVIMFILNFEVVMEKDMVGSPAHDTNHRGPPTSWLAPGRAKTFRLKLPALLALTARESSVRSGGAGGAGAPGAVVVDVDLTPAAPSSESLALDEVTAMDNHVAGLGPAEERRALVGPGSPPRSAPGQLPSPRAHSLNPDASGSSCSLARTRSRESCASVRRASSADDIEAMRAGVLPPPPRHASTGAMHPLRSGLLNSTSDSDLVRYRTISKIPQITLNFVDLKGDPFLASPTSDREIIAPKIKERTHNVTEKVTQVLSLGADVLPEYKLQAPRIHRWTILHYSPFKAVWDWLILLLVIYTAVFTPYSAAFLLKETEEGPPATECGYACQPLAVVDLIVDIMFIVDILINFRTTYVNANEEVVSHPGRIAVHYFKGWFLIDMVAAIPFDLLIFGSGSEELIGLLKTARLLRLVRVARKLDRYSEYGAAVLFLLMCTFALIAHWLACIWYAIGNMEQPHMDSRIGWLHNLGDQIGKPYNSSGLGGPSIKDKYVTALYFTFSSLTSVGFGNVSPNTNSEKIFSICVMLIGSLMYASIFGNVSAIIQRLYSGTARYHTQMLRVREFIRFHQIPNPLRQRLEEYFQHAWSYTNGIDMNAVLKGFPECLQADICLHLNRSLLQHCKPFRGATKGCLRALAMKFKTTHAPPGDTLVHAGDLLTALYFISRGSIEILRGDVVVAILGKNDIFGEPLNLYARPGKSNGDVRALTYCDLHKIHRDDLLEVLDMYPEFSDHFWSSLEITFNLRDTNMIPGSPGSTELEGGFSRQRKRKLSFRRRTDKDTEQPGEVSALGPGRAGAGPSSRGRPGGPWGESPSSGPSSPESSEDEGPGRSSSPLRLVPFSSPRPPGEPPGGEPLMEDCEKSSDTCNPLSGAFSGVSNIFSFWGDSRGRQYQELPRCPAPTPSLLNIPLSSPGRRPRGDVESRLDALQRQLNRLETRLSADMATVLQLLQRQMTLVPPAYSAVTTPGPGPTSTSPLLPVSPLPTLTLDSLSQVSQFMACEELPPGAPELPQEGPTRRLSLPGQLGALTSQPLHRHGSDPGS
Description: The potential for compounds to inhibit the hERG potassium channel was determined using a hERG-HEK stably transfected cell line on the Sophion Qube automated electrophysiology platform. The assay was performed at room temperature and recordings of the hERG tail current from individual cells was made using single-hole QChips.
The potency (IC50) of test compounds to inhibit the hERG channel was determined from a concentration-response curve generated from 8 test compound concentrations with up to 4 replicates per concentration.
The compound concentration was added to the test well twice to ensure complete exchange of the external buffer with the test compound. In total, compound was applied to the well for >7 minutes.

[1] = Hepatocyte stability assay, mouse; format: in vitro ADME; conditions: male, CD-1, pooled hepatocytes, 37° C.
Description: Test and control compounds were incubated with hepatocytes at 37° C. Aliquots were removed at 6 timepoints over a one hour period. Samples were centrifuged and the supernatant fractions analysed for parent compound by mass spectrometry (LC-MS/MS).
The amount of compound remaining (expressed as %) was determined from the MS response in each sample relative to that in the T=0 samples, and used to determine the half-life and intrinsic clearance of the compound.

[2] = test system: IL-17F production in Th17 cells; assay: IL-17F production inhibition in Th17 cells derived from human peripheral blood CD4CD45RO+ cells; format: cell-based
Description: (§2) Fresh human Peripheral blood CD4CD45RO+ cells were purchased commercially (Generon, UK); 3 separate vials from 3 different volunteers for experimental replicates. Cells were grown in T-cell medium (Thermo Fisher) containing 10 ng/ml recombinant human IL-1B (R&D Systems), IL-23 (R&D Systems), TGF-B1 (R&D Systems) and 50 ng/ml IL-6 (R&D Systems) together with anti-CD3/CD28 magnetic Dynabeads (Thermo Fisher). These were grown for 11 days to induce expansion of Th17 cells. Prior to plating for assays cells were grown overnight in T-cell medium supplemented with human serum (1%) overnight. Media was removed and replaced with unsupplemented RPMI for 4 h prior to assay.
To measure IL-17F levels, 200,000 cells were plated into a 96 well plate and preincubated with compounds for 30 minutes followed by stimulation with recombinant IL-23 at 6.25 ng/ml and recombinant human IL-1B at 0.1 ng/ml for 48 h. Supernatants were removed and IL-17F levels measured using a commercially available ELISA kit (Thermo Fisher; BMS2037-2).
(§3) ELISAs were carried out according to manufacturers instructions and absorbance read using a microplate reader (Thermo Fisher; Varioskan). Data was normalised to the response in untreated samples using the formula: % of control=((Stimulated sample Conc.−unstimulated sample Conc.)×100)/(Control stimulated Conc.−control unstimulated Conc.)
(§4) Graphpad Prism 8.1.0 was used to calculate I050 values using a Nonlinear 4 parameter logistic regression model (4PL).

[3] = test system: STAT3 phosphorylation in Th17 cells; assay: Inhibition of STAT3 phosphorylation in Th17 cells derived from human peripheral blood CD4CD45RO+ cells; format: cell-based
Description: as §2
To measure pSTAT3 levels, 200,000 cells were plated into a 96 well plate and preincubated with compounds for 30 minutes followed by stimulation with recombinant IL-23 at 12.5 ng/ml for 15 minutes then lysed using cell lysis buffer. pSTAT3 levels in the lysates were measured using a commercially available ELISA kit (Thermo Fisher; 85-86102-11).
as §3, §4

TYK2 = TYK2 (Homo sapiens, UniProt P29597); assay: TYK2 kinase inhibition assay (33P-ATP filter binding, Reaction Biology)
TYK2, sequence (P29597 833-1187): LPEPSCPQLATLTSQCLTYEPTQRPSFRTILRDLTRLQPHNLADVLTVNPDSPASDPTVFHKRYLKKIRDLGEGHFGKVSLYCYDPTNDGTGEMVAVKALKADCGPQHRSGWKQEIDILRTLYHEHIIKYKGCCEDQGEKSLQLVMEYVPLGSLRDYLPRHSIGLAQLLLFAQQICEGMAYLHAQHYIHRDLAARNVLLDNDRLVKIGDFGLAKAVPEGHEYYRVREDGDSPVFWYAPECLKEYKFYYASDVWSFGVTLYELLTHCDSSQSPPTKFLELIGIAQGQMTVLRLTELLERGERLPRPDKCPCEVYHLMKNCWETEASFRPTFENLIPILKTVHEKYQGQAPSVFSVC

JAK1 = JAK1 (Homo sapiens, UniProt P23458); assay: JAK1 kinase inhibition assay (33P-ATP filter binding, Reaction Biology)
JAK1, sequence (P23458 866-1154): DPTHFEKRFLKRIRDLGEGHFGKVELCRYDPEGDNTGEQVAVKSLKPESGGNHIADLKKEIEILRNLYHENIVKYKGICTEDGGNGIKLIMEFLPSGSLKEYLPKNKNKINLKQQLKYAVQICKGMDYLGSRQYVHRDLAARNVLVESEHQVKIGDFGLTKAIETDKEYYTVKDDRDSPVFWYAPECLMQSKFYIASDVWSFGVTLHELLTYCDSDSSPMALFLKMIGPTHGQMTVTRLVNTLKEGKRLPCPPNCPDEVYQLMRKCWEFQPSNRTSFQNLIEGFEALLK

[4] = IL-23 6.25 ng/ml + IL-1B 0.1 ng/ml, 48 h, Donor 1, read-out: IL17-F Production Inhibition IC50, Donor 1
[5] = IL-23 6.25 ng/ml + IL-1B 0.1 ng/ml, 48 h, Donor 2, read-out: IL17-F Production Inhibition IC50, Donor 2
[6] = IL-23 6.25 ng/ml + IL-1B 0.1 ng/ml, 48 h, Donor 3, read-out: IL17-F Production Inhibition IC50, Donor 3
[7] = average of 3 donors, read-out: IL17-F Production Inhibition IC50, Average
[8] = 0.25 h, IL-23 12.5 ng/ml, 15 minutes, Donor 1, read-out: Inhibition of STAT3 phosphorylation IC50, Donor 1
[9] = 0.25 h, IL-23 12.5 ng/ml, 15 minutes, Donor 2, read-out: Inhibition of STAT3 phosphorylation IC50, Donor 2
[10] = 0.25 h, IL-23 12.5 ng/ml, 15 minutes, Donor 3, read-out: Inhibition of STAT3 phosphorylation IC50, Donor 3
[11] = average of 3 donors, read-out: Inhibition of STAT3 phosphorylation IC50, Average

IC50 (CYP1A2) [µM]	IC50 (CYP2C19) [µM]	IC50 (CYP2D6) [µM]	hepatocyte CLint [1] [µL/min/1e6 cells]	IC50 [2, 4] [µM]	IC50 [2, 5] [µM]	IC50 [2, 6] [µM]	IC50 [2, 7] [µM]	IC50 [3, 8] [µM]	IC50 [3, 9] [µM]	IC50 [3, 10] [µM]	IC50 [3, 11] [µM]	IC50 (TYK2) [µM]	IC50 (JAK1) [µM]	half-life ([1]; read-out: Mouse T1/2) [min]	Selectivity v TYK2: TYK2 (TYK2; ratio of IC50 to TYK2 IC50)	Selectivity v TYK2: JAK1 (JAK1; ratio of JAK1 IC50 to TYK2 IC50)	Structure (SMILES)	IC50 (hERG potassium channel) [µM]	inhibition at 30 uM (hERG potassium channel) [%]
> 30	> 30	> 30	16.8	0.117	0.134	0.064	0.105	0.069	0.029	0.055	0.051	0.0019	0.02				NC(=O)c1nc(-c2c(Cl)cccc2Cl)oc1Nc1ccc(C(=O)N2CCS(=O)(=O)CC2)cc1 [Compound (2)]	> 30	38.6
> 30	> 30	> 30	40.5	0.243	0.217	0.148	0.203	0.111	0.017	0.054	0.061	0.0051	0.026				NC(=O)c1nc(-c2c(Cl)cccc2Cl)oc1Nc1ccc(C(=O)N2CCOCC2)cc1 [Comparative Compound B, 2-(2,6-dichloro-phenyl)-5-[4-(morpholine-4-carbonyl)-phenylamino]-oxazole-4-carboxylic acid amide, reference compound]	~30	50.5
> 30	29	> 30	28	0.057	0.548	0.105	0.237	0.157	0.029	0.091	0.092	0.0047	0.051	39.2	1	10.9	NC(=O)c1nc(-c2c(Cl)cccc2Cl)oc1Nc1ccc(C(=O)N2CCS(=O)(=O)CC2)c(F)c1 [Compound (3)]	> 30	31.5
